In PMC4882559, “Novel Azetidine-Containing TZT-1027 Analogues as Antitumor Agents” (Marine Drugs, 2016):
Converted amounts (≈) assume the structure as drawn. “Also recorded” adds a separate entry of the source.

Experiments:
[1] = tested on: HCT116 human colon cancer cells; experiment: Cancer cell proliferation inhibition (MTT assay), HCT116; assay type: cell-based; conditions: 72 h incubation, mean ± SD of at least three independent experiments
Description: The following cell lines were used for the screening stage, obtained from American Type Culture Collection (ATCC, Manassas, VA, USA); HCT116 human colon cancer cells and A549 human lung carcinoma cell lines were cultured in RPMI 1640 medium supplemented with 10% FBS. Cell cultures were maintained in a humidified atmosphere of 5% CO2 at 37 °C. Cells were seeded at 2000 cells per well in 96-well plates in a volume of 200 μL per well. The test compounds were dissolved in DMSO and diluted with culture medium to different concentrations. After seeding for 24 h, the medium was removed, and […] of the test compound solution was added in duplicates and incubation continued for 72 h at 37 °C in a humidified atmosphere containing 5% CO2. Control cells were treated with vehicle alone. During the last 4 h of incubation, the cells were exposed to tetrazolium dye (MTT) solution (5 mg/mL, […] per well). The generated formazan crystals were dissolved in […] of dimethyl sulfoxide (DMSO), and the absorbance was read spectrophotometrically at 570 nm using an enzyme-linked immunosorbent assay plate reader. The data was calculated using Graph Pad Prism version 5.0 (GraphPad Softwrae, La Jolla, CA, USA). The IC50s were fitted using a non-linear regression model with a sigmoidal dose response.

[2] = Liver microsomes metabolic stability, rat
[3] = Liver microsomes metabolic stability, mouse
Solubility of 1a = assay type: physicochemical
[4] = Liver microsomes metabolic stability, human
Human A549 xenograft = experiment: In vivo efficacy study, A549 xenograft model; set-up: species or system BALB/c athymic mice; conditions: for Tumor volume: n = 6, mean (SD on next line); for Relative tumor volume: RTV = Vt/V0, n = 6, mean ± SD
Description: Pathogen-free, 4–6 week-old, female BALB/c athymic mice (Shanghai SCXK Laboratory Animal Technology Co. Ltd., Shanghai, China) were housed under sterile conditions. Human A549 xenograft was established in the right flanks of athymic mice according to the protocol of the National Cancer Institute. When the tumor reached a volume of 100 mm^3, the mice were randomly assigned into control (n = 6 per group) and treatment groups (n = 6 per group). Control group were given lactate buffer, and treatment groups were iv administered with tested compounds. The size of tumor was measured individually on the indicated days. Tumor volume (V) was calculated as V = (length × width^2)/2. The individual relative tumor volume (RTV) was calculated as follows: RTV = Vt/V0, where Vt represented the last tumor size measurement and V0 represented the pre-dosing tumor size measurement. The animal experimental protocols were approved by the Animal Ethics Committee of School of Pharmacy, Fudan University and the mice were treated in accordance with international animal ethics guidelines.

CC[C@H](C)[C@@H]([C@@H](CC(=O)N1CCC[C@H]1[C@H](OC)[C@@H](C)C(=O)N1CC(c2ccccc2)C1)OC)N(C)C(=O)[C@@H](NC(=O)C(C(C)C)N(C)C)C(C)C (stereo in doubt) [1a, (S)-2-((R)-2-(Dimethylamino)-3-methylbutanamido)-N-((3R,4S,5S)-3-methoxy-1-((S)-2-((1R,2R)-1-methoxy-2-methyl-3-oxo-3-(3-phenylazetidin-1-yl)propyl)pyrrolidin-1-yl)-5-methyl-1-oxoheptan-4-yl)-N,3-dimethylbutanamide]
IC50 [1]: 2.1 ± 0.4 nM | Clint ([2]; Rat, apparent intrinsic clearance, 1 μM): 262.12 mL/min/kg | half-life at 1 μM ([2]; rat, microsomes): 9.48 min | T1/2 ([3]; Mouse liver microsomes, metabolic stability, 1 μM): less than 2 min | Clint ([3]; Mouse, apparent intrinsic clearance, 1 μM): 2981.16 mL/min/kg | half-life at 1 μM ([3]; mouse, microsomes): 1.83 min | solubility (Solubility of 1a; distilled water, pH 7.4, water): 346 µg/mL (≈ 485 µM) | solubility (in words) (Solubility of 1a; limited exploration of higher in vivo dosage): poor solubility | Clint ([4]; Human, apparent intrinsic clearance, 1 μM): 92.93 mL/min/kg | half-life at 1 μM ([4]; human, microsomes): 18.7 min | Tumor volume (Human A549 xenograft; 1 mg/kg iv once a day, day 1): 149.56 mm3 | Relative tumor volume (Human A549 xenograft; 1 mg/kg iv once a day, day 4): 1.27 ± 0.37 | Tumor volume (Human A549 xenograft; 1 mg/kg iv once a day, day 4): 185.88 mm3 | Relative tumor volume (Human A549 xenograft; 1 mg/kg iv once a day, day 7): 1.65 ± 0.57 | Tumor volume (Human A549 xenograft; 1 mg/kg iv once a day, day 7): 248.97 mm3 | Relative tumor volume (Human A549 xenograft; 1 mg/kg iv once a day, day 10): 2.29 ± 0.76 | Tumor volume (Human A549 xenograft; 1 mg/kg iv once a day, day 10): 341.75 mm3 | Relative tumor volume (Human A549 xenograft; 1 mg/kg iv once a day, day 13): 2.69 ± 0.9 | Tumor volume (Human A549 xenograft; 1 mg/kg iv once a day, day 13): 395.43 mm3 | Relative tumor volume (Human A549 xenograft; 1 mg/kg iv once a day, day 16): 3.62 ± 1.05 | Tumor volume (Human A549 xenograft; 1 mg/kg iv once a day, day 16): 530.82 mm3 | Relative tumor volume (Human A549 xenograft; 1 mg/kg iv once a day, day 19): 3.86 ± 1.34 | Tumor volume (Human A549 xenograft; 1 mg/kg iv once a day, day 19): 563.52 mm3 | Relative tumor volume (Human A549 xenograft; 1 mg/kg iv once a day, day 22): 4.69 ± 1.74 | Tumor volume (Human A549 xenograft; 1 mg/kg iv once a day, day 22): 662.64 mm3 | Relative tumor volume (Human A549 xenograft; 2 mg/kg iv once a day, day 4): 1.3 ± 0.22 | Tumor volume (Human A549 xenograft; 2 mg/kg iv once a day, day 4): 214.97 mm3 | Relative tumor volume (Human A549 xenograft; 2 mg/kg iv once a day, day 7): 1.8 ± 0.31 | Tumor volume (Human A549 xenograft; 2 mg/kg iv once a day, day 7): 287.02 mm3 | Relative tumor volume (Human A549 xenograft; 2 mg/kg iv once a day, day 10): 2.44 ± 0.46 | Tumor volume (Human A549 xenograft; 2 mg/kg iv once a day, day 10): 381.31 mm3 | Relative tumor volume (Human A549 xenograft; 2 mg/kg iv once a day, day 13): 3.22 ± 0.6 | Tumor volume (Human A549 xenograft; 2 mg/kg iv once a day, day 13): 508.66 mm3 | Relative tumor volume (Human A549 xenograft; 2 mg/kg iv once a day, day 16): 4.34 ± 0.97 | Tumor volume (Human A549 xenograft; 2 mg/kg iv once a day, day 16): 682.39 mm3 | Relative tumor volume (Human A549 xenograft; 2 mg/kg iv once a day, day 19): 5.15 ± 1.13 | Tumor volume (Human A549 xenograft; 2 mg/kg iv once a day, day 19): 813.25 mm3 | Relative tumor volume (Human A549 xenograft; 2 mg/kg iv once a day, day 22): 5.5 ± 2.15 | Tumor volume (Human A549 xenograft; 2 mg/kg iv once a day, day 22): 862.75 mm3 | Tumor volume (Human A549 xenograft; 5 mg/kg iv once a day, day 1): 205.7 mm3 | Relative tumor volume (Human A549 xenograft; 5 mg/kg iv once a day, day 4): 1.37 ± 0.34 | Tumor volume (Human A549 xenograft; 5 mg/kg iv once a day, day 4): 266.39 mm3 | Relative tumor volume (Human A549 xenograft; 5 mg/kg iv once a day, day 7): 1.53 ± 0.41 | Tumor volume (Human A549 xenograft; 5 mg/kg iv once a day, day 7): 287.02 mm3 | Relative tumor volume (Human A549 xenograft; 5 mg/kg iv once a day, day 10): 2.05 ± 0.62 | Tumor volume (Human A549 xenograft; 5 mg/kg iv once a day, day 10): 380.17 mm3 | Relative tumor volume (Human A549 xenograft; 5 mg/kg iv once a day, day 13): 2.7 ± 0.88 | Tumor volume (Human A549 xenograft; 5 mg/kg iv once a day, day 13): 487.47 mm3 | Relative tumor volume (Human A549 xenograft; 5 mg/kg iv once a day, day 16): 2.97 ± 0.91 | Tumor volume (Human A549 xenograft; 5 mg/kg iv once a day, day 16): 554.26 mm3 | Relative tumor volume (Human A549 xenograft; 5 mg/kg iv once a day, day 19): 3.51 ± 0.82 | Tumor volume (Human A549 xenograft; 5 mg/kg iv once a day, day 19): 668.46 mm3 | Relative tumor volume (Human A549 xenograft; 5 mg/kg iv once a day, day 22): 4.19 ± 1.41 | Tumor volume (Human A549 xenograft; 5 mg/kg iv once a day, day 22): 789.59 mm3 | toxicity and weight loss (Human A549 xenograft; 1, 2 and 5 mg/kg/day iv for 22 days, A549 xenograft mice): no overt toxicity and weight-loss; also recorded: did not show any severe toxicity
